Our source for the inhibition, IC50 and C50 values is ChEMBL document CHEMBL1156320, “Discovery of novel (S)-alpha-phenyl-gamma-amino butanamide containing CCR5 antagonists via functionality inversion approach” (Bioorg Med Chem Lett, 2010).

Common to all, as to type: functional, cell-based
For test [1], the target named is T1, C-C chemokine receptor type 5 (Homo sapiens, UniProt P51681). Nature of the test: Antagonist activity at CCR5 receptor expressed in CHO cells assessed as inhibition of RANTES-induced […]GTPgammaS binding at 300 nM.
Target sequence in this assay (P51681 whole entry, looked up): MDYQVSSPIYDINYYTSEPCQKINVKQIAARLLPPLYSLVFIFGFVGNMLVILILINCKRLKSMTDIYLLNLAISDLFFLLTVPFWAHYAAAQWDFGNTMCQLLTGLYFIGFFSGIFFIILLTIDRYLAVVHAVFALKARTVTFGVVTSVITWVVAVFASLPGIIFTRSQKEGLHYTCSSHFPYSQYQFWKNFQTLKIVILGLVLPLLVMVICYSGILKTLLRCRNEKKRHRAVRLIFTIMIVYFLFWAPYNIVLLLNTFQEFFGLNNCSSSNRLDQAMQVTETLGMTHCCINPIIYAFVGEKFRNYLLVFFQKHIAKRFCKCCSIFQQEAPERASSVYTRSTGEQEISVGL
The target of test [2] is T1, C-C chemokine receptor type 5. Nature of the test: Antagonist activity at CCR5 receptor expressed in CHO cells assessed as inhibition of RANTES-induced […]GTPgammaS binding.
For test [3] the target is unchanged. Nature of the test: Antagonist activity at CCR5 receptor expressed in CHO cells assessed as inhibition of RANTES-induced […]GTPgammaS binding at 10 uM. A general note: Binding of GTPγS marks nucleotide exchange on a G protein.
Target sequence in this assay (P51681 whole entry, looked up): as above

Calls of active or inactive are those of the source. The calls are words filed in the database; no cut-off is given here. Where only a bound is given, the exact number is not on record here.

As to `Cc1nc2cccnc2n1[C@@H]1C[C@H]2CC[C@@H](C1)N2CC[C@H](C(=O)OCc1ccc(F)cc1)c1ccccc1`, the inhibition in test [1] is 19%.
On the same count and under the same terms, then `Cc1nc2cccnc2n1[C@H]1C[C@H]2CC[C@@H](C1)N2CC[C@H](C(=O)N1C(=O)OC[C@H]1Cc1ccccc1)c1ccccc1` (stereo in doubt; 1b), with 10%.
On to `COC(=O)[C@@H](CCN1[C@@H]2CC[C@H]1C[C@@H](n1c(C)nc3cccnc31)C2)c1ccccc1`, for which, in test [1], the inhibition is 22%. The IC50 in test [2] was 112 nM.
On the same counts, the results for `Cc1nc2cccnc2n1[C@H]1C[C@H]2CC[C@@H](C1)N2CC[C@H](C(=O)NCc1ccc(F)cc1)c1ccccc1` are 30% and 14.4 nM.
As for `Cc1nc2cccnc2n1[C@H]1C[C@H]2CC[C@@H](C1)N2CC[C@H](C(=O)N1C(=O)OC[C@H]1Cc1ccccc1)c1ccccc1` (stereo in doubt; 1a), the inhibition in test [1] is 30%.
Consider `COC(=O)[C@@H](CCN1[C@@H]2CC[C@H]1C[C@H](n1nnc3cccnc31)C2)c1ccccc1`, for which, in test [2], the C50 was greater than 10 µM.
On to `O=C(NCc1ccc(F)cc1)[C@@H](CCN1[C@@H]2CC[C@H]1C[C@H](n1nnc3cccnc31)C2)c1ccccc1`, for which the inhibition in test [1] turned out to be 1%.
Same read-out and setting: then `Cc1nc2cccnc2n1[C@@H]1C[C@H]2CC[C@@H](C1)N2CC[C@H](COCc1ccc(F)cc1)c1ccccc1`, with 42%.
Regarding `Cc1nc2cccnc2n1[C@@H]1C[C@H]2CC[C@@H](C1)N2CC[C@H](CO)c1ccccc1`, the inhibition result in test [3] is “inactive”.

For orientation: inhibition means the percentage by which the read-out fell short of the control. For orientation: IC50 means the concentration at which inhibition is half-maximal.
